This note sets out measurements from article PMC6723439, “The Aryl Hydrocarbon Receptor (AhR) Mediates the Counter-Regulatory Effects of Pelargonidins in Models of Inflammation and Metabolic Dysfunctions” (Nutrients, 2019).

Test [1] addresses T1, aryl hydrocarbon receptor (AhR) (Homo sapiens, UniProt P35869).
T1 construct: pCMVXL4AhR transfected in HepG2 cells
T1 sequence (P35869 11-848): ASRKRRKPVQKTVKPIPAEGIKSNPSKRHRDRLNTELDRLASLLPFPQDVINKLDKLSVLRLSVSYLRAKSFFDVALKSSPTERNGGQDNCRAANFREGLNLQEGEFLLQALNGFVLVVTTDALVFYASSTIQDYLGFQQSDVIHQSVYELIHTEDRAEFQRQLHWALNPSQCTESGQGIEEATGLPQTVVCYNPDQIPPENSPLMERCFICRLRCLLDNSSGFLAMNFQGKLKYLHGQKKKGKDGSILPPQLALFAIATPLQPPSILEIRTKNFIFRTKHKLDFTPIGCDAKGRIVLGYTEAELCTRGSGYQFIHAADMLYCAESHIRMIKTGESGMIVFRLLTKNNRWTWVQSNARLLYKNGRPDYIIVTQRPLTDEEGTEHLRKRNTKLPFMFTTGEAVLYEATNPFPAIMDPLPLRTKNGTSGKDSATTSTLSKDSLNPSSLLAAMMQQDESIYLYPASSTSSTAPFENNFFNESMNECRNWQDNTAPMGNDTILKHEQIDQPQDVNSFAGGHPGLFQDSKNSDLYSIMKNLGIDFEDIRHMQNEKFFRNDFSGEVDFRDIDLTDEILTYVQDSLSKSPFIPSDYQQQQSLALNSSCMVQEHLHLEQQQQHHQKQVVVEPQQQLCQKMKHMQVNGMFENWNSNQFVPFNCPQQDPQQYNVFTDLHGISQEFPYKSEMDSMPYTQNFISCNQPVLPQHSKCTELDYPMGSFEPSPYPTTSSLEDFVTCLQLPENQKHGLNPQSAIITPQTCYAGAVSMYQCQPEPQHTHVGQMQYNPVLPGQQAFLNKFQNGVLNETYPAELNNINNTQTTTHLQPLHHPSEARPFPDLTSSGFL
In words: AhR luciferase reporter transactivation in AhR-transfected HepG2 cells; effects lost in AhR-/- macrophages. Type of test: cell-based. (A reporter such as luciferase makes a cellular process visible.)

Test [2] concerns the target T1, aryl hydrocarbon receptor (AhR). Nature of the test: AhR luciferase reporter transactivation in AhR-transfected HepG2 cells. The class given is cell-based.

pEC50: −log10 of the molar value.

What is called pEC50 is the EC50 on a negative log10 scale, so that one unit is a factor of ten. Low values mean a high EC50, high ones a low EC50. `COc1ccc(-c2[o+]c3cc(OC)cc(OC)c3cc2O)cc1` [Mt-P, methylated pelargonidin] had a pEC50 in test [1] of 5.71.
As for `Oc1ccc(-c2[o+]c3cc(O)cc(O)c3cc2O)cc1` [P, pelargonidin], the negative-log EC50 (pEC50) in test [2] was 5.40.
